Results: US20250255882A1, “TREATMENT OF CARDIAC CONDITION RELATED COGNITIVE DYSFUNCTION” (The Trustees of Columbia University in the City of New York, priority 2024, published 2025)

Assays:
[1] = tested on: mouse model of HF (myocardial infarction, MI); experiment: novel object recognition test (hippocampal-dependent short-term memory); format: in vivo; details: MI mice, treated; MI 15%±4%, SHAM 48%±5%
Description: One-way analysis of variance (ANOVA) was used to compare the difference between the six groups in FIGS. 2B, 2C, 2E and 2F. Tukey's test was used for multiple comparisons; two-way ANOVA was used in FIG. 2D. […] All statistical tests were two sided with the data derived from biologically independent samples.
Next, a novel object recognition test was used to evaluate hippocampal-dependent short-term memory. (see Liu, X. et al. Role of leaky neuronal ryanodine receptors in stress-induced cognitive dysfunction. Cell 150, 1055-1067 (2012); and Bevins, R. A. & Besheer, J. Object recognition in rats and mice: a one-trial non-matching-to-sample learning task to study ‘recognition memory’. Nat. Protoc. 1, 1306-1311 (2006)).

[2] = tested on: TGF-β pathway; experiment: immunoblots of TGF-β, phosphorylated SMAD3 and NOX2 binding to RyR2 in hippocampi; format: in vivo, mouse; details: hippocampi of treated MI mice
Description: FIG. 12A includes immunoblots showing expressing levels of TGF-β, phosphorylated SMAD3, total SMAD3, and NOX2 binding to RyR2 in the hippocampi of controls (n=4) and HF patients (n=9). FIG. 12B includes bar graphs depicting the ratio of TGF-β expression normalized to GAPDH, phosphorylated SMAD3 to total SMAD3 and NOX2 binding to RyR2 (IP RyR2). The same quantity of proteins was loaded on two separate gels and blotted separately for SMAD3 and pSMAD3. Individual values are shown with mean±SEM (t-test * p<0.05, Controls vs. HF patients). […] FIG. 12D includes bar graphs depicting the ratio of TGF-β expression normalized to GAPDH, phosphorylated SMAD3 to total SMAD3 and NOX2 binding to RyR2 (IP RyR2). The same quantity of proteins was loaded on two separate gels and blotted separately for SMAD3 and pSMAD3. Individual values are shown with mean±SEM. […] All statistical tests were two-sided. Data are derived from biologically independent samples.
TGF-β has been implicated in CNS disorders including Alzheimer's disease.

[3] = tested on: germinal matrix hemorrhage; details: cited from earlier work
[4] = tested on: HIV-1-associated neurocognitive disorders; details: rat model; cited from earlier work
[5] = target: T1, RyR2 (Mus musculus, UniProt E9Q401); experiment: ER Ca2+ leak measured in microsomes from mouse hippocampi; format: in vivo; parameters: Hippocampal RyR2 was immunoprecipitated and immunoblotted to detect PTMs; from tissue; host or cells: mouse hippocampus (SHAM / MI mice, treated in vivo); details: hippocampal microsomes from treated MI mice, versus untreated MI
Experimental: FIG. 3E are graphs of RyR2 Po, To and Tc in the same groups as FIG. 3D. FIG. 3F is a graph of Ca^2+ leak measured in microsomes from mouse hippocampi of the same groups as FIG. 3D. […] Individual values are shown with the mean±s.e.m. […] Data are derived from biologically independent samples. All statistical tests were two sided.
PTMs and functional abnormalities of neuronal RyR2 in HF hippocampal samples from MI mice were then evaluated and compared them to SHAM. Hippocampal RyR2 was immunoprecipitated and immunoblotted to detect PTMs.
Target sequence in this assay (E9Q401 whole entry): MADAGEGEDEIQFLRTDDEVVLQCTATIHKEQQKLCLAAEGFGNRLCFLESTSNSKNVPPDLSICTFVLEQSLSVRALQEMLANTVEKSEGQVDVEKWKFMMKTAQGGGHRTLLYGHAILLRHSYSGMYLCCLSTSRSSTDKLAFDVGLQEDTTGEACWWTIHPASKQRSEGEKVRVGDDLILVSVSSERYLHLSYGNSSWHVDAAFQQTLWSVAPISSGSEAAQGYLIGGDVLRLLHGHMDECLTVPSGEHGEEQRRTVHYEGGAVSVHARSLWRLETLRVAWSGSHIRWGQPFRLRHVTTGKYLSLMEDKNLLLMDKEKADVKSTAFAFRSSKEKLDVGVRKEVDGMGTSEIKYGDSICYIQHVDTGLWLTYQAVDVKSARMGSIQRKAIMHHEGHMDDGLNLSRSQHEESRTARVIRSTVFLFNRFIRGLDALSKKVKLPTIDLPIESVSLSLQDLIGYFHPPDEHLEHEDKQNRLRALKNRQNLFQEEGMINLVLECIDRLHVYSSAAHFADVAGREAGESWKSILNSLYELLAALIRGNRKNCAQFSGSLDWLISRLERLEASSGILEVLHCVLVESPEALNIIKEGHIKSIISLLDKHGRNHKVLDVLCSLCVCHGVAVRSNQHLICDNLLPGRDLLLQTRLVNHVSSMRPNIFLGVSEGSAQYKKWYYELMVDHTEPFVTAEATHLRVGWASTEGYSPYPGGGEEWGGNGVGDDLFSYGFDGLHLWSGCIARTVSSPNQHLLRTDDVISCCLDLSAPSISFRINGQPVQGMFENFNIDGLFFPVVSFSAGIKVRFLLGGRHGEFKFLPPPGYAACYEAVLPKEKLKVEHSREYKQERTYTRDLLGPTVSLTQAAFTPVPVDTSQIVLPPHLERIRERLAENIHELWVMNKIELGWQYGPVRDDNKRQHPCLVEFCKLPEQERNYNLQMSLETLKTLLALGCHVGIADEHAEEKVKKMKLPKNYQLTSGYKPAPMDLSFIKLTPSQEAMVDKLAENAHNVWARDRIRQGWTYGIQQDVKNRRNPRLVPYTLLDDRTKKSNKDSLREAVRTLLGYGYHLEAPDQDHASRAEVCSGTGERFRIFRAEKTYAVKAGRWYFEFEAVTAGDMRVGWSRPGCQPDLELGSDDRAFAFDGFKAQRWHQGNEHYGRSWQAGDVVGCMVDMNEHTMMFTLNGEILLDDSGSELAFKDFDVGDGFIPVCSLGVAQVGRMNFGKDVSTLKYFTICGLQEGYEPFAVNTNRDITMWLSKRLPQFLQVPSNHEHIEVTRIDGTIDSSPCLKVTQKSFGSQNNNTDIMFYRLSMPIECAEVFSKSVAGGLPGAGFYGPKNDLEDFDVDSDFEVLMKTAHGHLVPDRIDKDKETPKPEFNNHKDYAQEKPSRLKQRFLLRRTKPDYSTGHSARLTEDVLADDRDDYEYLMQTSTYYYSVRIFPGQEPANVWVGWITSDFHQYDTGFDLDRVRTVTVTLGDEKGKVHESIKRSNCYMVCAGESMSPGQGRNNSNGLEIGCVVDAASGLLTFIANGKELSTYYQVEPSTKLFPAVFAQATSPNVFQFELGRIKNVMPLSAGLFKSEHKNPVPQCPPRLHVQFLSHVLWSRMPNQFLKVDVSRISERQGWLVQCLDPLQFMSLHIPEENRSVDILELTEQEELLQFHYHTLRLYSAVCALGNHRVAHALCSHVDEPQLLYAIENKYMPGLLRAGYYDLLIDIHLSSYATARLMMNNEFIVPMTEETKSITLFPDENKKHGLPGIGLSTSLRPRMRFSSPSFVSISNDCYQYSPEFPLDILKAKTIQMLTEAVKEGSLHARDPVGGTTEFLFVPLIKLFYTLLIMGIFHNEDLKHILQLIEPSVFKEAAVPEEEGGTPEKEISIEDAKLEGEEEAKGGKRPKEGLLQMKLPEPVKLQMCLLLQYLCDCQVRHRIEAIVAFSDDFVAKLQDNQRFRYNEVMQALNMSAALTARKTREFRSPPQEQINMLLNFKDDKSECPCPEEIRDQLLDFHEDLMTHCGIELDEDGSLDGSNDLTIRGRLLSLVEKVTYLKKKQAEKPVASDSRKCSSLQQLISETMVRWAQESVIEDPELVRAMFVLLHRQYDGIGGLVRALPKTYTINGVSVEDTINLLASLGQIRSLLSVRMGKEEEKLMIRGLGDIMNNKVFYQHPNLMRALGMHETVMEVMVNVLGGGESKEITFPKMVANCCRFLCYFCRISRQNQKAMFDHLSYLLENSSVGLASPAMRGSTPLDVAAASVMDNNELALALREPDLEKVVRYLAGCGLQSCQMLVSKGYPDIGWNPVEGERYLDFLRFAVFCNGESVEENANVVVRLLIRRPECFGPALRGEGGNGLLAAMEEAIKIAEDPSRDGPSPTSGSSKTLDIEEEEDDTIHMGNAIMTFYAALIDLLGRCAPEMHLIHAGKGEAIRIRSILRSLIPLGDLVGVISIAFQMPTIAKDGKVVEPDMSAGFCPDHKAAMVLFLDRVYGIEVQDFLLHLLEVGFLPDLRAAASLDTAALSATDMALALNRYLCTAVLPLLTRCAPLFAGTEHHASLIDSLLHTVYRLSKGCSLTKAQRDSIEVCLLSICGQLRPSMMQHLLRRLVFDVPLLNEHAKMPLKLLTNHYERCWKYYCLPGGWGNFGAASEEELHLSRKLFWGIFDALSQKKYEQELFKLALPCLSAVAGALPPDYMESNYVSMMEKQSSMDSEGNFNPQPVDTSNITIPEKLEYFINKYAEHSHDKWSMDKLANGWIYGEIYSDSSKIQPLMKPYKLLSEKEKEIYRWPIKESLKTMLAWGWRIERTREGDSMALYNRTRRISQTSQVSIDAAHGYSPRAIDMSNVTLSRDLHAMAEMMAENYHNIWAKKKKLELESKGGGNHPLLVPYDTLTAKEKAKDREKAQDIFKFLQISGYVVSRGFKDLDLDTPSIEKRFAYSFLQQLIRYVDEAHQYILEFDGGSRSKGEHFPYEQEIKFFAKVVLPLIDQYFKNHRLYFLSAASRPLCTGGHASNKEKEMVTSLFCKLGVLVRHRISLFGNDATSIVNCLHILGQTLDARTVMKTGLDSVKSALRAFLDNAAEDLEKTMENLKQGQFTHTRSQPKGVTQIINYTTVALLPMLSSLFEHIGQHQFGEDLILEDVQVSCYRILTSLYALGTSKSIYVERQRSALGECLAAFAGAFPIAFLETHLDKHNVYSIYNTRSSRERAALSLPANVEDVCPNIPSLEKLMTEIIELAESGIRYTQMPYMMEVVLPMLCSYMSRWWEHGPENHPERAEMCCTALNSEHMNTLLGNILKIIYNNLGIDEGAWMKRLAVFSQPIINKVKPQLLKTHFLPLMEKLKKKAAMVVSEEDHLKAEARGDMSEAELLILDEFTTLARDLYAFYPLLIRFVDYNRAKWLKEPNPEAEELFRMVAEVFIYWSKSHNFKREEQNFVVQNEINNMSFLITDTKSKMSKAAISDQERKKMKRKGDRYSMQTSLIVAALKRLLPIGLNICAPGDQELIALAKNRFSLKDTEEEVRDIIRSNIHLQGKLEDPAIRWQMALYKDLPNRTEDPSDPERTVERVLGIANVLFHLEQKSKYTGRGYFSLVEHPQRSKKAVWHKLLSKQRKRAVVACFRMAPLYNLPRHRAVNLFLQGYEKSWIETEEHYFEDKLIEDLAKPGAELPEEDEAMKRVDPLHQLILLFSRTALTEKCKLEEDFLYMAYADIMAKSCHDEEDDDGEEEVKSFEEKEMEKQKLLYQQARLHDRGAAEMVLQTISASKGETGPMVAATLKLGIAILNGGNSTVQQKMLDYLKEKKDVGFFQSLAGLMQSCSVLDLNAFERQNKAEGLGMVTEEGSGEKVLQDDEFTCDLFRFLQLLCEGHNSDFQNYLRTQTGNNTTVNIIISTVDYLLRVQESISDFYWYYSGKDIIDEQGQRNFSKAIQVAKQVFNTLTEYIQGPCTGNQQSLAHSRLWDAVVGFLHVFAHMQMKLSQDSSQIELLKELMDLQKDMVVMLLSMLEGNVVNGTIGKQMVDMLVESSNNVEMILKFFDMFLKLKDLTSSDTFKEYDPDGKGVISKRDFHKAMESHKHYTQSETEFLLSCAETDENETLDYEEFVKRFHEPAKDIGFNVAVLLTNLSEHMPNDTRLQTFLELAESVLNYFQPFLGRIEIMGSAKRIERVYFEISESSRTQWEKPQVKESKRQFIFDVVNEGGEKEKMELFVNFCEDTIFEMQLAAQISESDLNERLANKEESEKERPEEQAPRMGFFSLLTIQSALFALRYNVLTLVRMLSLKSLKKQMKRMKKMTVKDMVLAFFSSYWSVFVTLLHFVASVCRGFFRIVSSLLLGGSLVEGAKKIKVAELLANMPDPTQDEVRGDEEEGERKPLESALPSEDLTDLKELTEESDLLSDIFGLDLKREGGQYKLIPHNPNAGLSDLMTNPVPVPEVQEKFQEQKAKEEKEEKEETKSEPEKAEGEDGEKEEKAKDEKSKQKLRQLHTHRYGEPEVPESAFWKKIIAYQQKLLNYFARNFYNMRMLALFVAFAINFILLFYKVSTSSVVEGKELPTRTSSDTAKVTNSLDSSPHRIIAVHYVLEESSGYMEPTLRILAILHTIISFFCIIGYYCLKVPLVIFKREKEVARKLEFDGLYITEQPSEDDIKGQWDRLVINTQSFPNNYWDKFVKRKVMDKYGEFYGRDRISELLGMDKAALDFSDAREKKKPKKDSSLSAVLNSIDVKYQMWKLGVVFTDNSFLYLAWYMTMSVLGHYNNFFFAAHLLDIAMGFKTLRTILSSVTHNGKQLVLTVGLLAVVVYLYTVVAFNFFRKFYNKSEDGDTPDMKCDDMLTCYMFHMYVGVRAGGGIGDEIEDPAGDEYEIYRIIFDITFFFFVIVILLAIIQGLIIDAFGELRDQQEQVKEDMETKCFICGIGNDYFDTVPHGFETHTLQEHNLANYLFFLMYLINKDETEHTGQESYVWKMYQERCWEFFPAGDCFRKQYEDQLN
Target sequence in this assay (Q9Z2I2 whole entry partner): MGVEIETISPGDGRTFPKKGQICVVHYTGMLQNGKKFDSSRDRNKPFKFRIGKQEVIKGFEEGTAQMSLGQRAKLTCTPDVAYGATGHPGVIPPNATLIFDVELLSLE

[6] = tested on: amyloid and Tau pathology; details: Alzheimer's transgenic mice; cited from earlier work
[7] = tested on: healthy individuals; details: sustaining cognitive performance over time; cited from earlier work
[8] = target: T1, RyR2; experiment: caffeine-induced Ca2+ release in primary hippocampal neurons; format: cell-based; parameters: representative images of 14-d cultured hippocampal neurons stimulated with 10 mM caffeine; endogenous in cells; host or cells: primary hippocampal neurons, 14 d in culture; details: 10 mM caffeine; neurons treated with isoproterenol plus compound
Experimental: FIG. 5A presents representative images of 14-d cultured hippocampal neurons stimulated with 10 mM caffeine. For each condition, the Ca^2+ levels are shown at baseline, during stimulation and at recovery. […] Individual values are shown with the mean±s.e.m. […] Scale bar, 10 μm. A reduction in caffeine-induced Ca^2+ release indicates a Ca^2+ depleted ER due to persistent RyR2-mediated Ca^2+ leak. Data are derived from biologically independent samples. All statistical tests were two sided.
To determine whether the activation of the adrenergic pathway indeed causes neuronal RyR2-mediated ER Ca^2+ leak, caffeine (10 mM), a well characterized RyR agonist, was used to assess RyR2 function specifically in hippocampal neurons without interference of other cell types such as glial cells or astrocytes.
Target sequence in this assay (E9Q401 whole entry): as the sequence (E9Q401 whole entry) above

## Fc1ccc(Cl)cc1-c1nc(Nc2ccncc2)c2nccnc2n1 [SD-208]
[1]
  discrimination index: 35%±6%
[2]
  NOX2 binding to hippocampal RyR2: significantly reduced
  TGF-β levels: significantly reduced
  phosphorylation of SMAD3: significantly reduced
[3]; rat model of germinal matrix hemorrhage
  motor and cognitive function: partial recovery
[3]; rat model
  germinal matrix hemorrhage: inhibit germinal matrix hemorrhage
[4]
  spatial learning: improved
[5]
  ER Ca2+ leak: reduced

## CC(C)NCC(O)COc1cccc2ccccc12 (centres unmarked) [propranolol]
[2]
  NOX2 binding to hippocampal RyR2: significantly reduced
  TGF-β levels: significantly reduced
  phosphorylation of SMAD3: significantly reduced
[6]
  amyloid and Tau pathology: reduced
[7]
  effects on cognition: beneficial effects
[8]
  prevention of the small caffeine-induced Ca2+ release of isoproterenol-treated neurons: prevented
